# According to patent publication US20240376099A1, “COMPOUNDS AND COMPOSITIONS AS INHIBITORS OF ENDOSOMAL TOLL-LIKE RECEPTORS” (Novartis AG, priority 2016, published 2024):
# Molecular target: T1, TLR9 (Homo sapiens, UniProt Q9NR96)
# T1 construct: Fresh blood was collected from normal human donors; endogenous in cells; host or cells: human PBMCs from fresh donor blood
# T1 sequence (Q9NR96 26-1032): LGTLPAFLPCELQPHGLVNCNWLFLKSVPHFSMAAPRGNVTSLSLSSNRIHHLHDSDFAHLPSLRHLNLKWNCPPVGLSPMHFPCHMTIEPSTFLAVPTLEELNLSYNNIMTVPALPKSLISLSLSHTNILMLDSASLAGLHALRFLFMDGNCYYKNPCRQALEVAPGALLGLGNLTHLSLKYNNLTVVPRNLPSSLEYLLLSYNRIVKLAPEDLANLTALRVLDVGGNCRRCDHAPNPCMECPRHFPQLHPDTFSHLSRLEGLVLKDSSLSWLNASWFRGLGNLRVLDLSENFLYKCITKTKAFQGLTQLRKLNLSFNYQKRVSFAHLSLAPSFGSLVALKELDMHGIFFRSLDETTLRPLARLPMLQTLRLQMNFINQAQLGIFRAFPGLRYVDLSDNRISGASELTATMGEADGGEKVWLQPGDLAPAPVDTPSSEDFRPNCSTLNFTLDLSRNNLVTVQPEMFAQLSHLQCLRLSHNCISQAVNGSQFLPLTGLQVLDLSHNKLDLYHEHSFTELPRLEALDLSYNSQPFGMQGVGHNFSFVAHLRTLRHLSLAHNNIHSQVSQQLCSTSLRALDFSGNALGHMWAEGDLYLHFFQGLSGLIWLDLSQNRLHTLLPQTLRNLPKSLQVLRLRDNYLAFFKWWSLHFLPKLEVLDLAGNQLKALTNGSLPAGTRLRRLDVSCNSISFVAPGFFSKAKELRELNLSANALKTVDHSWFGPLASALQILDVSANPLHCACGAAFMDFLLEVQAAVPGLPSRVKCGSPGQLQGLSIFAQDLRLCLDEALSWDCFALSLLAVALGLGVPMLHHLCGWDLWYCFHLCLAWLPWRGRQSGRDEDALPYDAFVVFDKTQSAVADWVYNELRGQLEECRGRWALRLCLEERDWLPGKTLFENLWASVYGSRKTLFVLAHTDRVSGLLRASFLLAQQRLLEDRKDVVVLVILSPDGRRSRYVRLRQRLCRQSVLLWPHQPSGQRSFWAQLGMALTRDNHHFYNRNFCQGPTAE
# Assay: huPBMC TLR9 Antagonist IFNα Assay
# Type: cell-based
# Conditions: human PBMCs stimulated with ODN2216 0.3 μM, 14-16 hrs; IFNα2b AlphaLISA read-out
# In short: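 Human PBMCs from fresh donor blood (150,000 cells/well) stimulated 14–16 h at 37 °C with DOTAP-complexed ssRNA40 (final 1 μg/ml for TLR8, 10 μg/mL for TLR7) or ODN2216 (final 0.3 μM, TLR9), 0.25% DMSO, ten-point 1/3 compound dilutions. Supernatant IL-6 read by HTRF (TLR8); IFNα by IFNα2b AlphaLISA (TLR7/TLR9).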
row,Compound,IC50
1,"Cc1cc(N2CCc3c(c(C)nn3CC34CCC(N)(CC3)CC4)C2)c2cnn(C)c2n1 [Compound No. 1, 4-((5-(1,6-dimethyl-1H-pyrazolo[3,4-b]pyridin-4-yl)-3-methyl-4,5,6,7-tetrahydro-1H-pyrazolo[4,3-c]pyridin-1-yl)methyl)bicyclo[2.2.2]octan-1-amine]",1520 nM
2,"Cc1cc(N2CCc3c(c(C)nn3CC34CCC(N)(CC3)CC4)C2)c2cn[nH]c2n1 [Compound No. 2, 4-((3-methyl-5-(6-methyl-1H-pyrazolo[3,4-b]pyridin-4-yl)-4,5,6,7-tetrahydro-1H-pyrazolo[4,3-c]pyridin-1-yl)methyl)bicyclo[2.2.2]octan-1-amine]",3130 nM
3,"Cc1cc(N2CCc3c(c(C)nn3CC34CCC(N(C)C(=O)OC(C)(C)C)(CC3)CC4)C2)c2cnn(C)c2n1 [Compound No. 49, tert-butyl (4-((5-(1,6-dimethyl-1H-pyrazolo[3,4-b]pyridin-4-yl)-3-methyl-4,5,6,7-tetrahydro-1H-pyrazolo[4,3-c]pyridin-1-yl)methyl)bicyclo[2.2.2]octan-1-yl)(methyl)carbamate]",3950 nM
4,"CNC12CCC(Cn3nc(C)c4c3CCN(c3cc(C)nc5c3cnn5C)C4)(CC1)CC2 [Compound No. 50, 4-((5-(1,6-dimethyl-1H-pyrazolo[3,4-b]pyridin-4-yl)-3-methyl-4,5,6,7-tetrahydro-1H-pyrazolo[4,3-c]pyridin-1-yl)methyl)-N-methylbicyclo[2.2.2]octan-1-amine]",376 nM
5,"Cc1cc(N2CCc3c(c(C)nn3CC34CCC(NC(=O)OC5(C)CC5)(CC3)CC4)C2)c2cnn(C)c2n1 [Compound No. 51, 1-methylcyclopropyl (4-((5-(1,6-dimethyl-1H-pyrazolo[3,4-b]pyridin-4-yl)-3-methyl-4,5,6,7-tetrahydro-1H-pyrazolo[4,3-c]pyridin-1-yl)methyl)bicyclo[2.2.2]octan-1-yl)carbamate]",7550 nM
6,"COc1ccc(Cn2ncc3c(N4CCc5c(c(C)nn5CC56CCC(N)(CC5)CC6)C4)cc(C)nc32)cc1 [Compound No. 53, 4-((5-(1-(4-methoxybenzyl)-6-methyl-1H-pyrazolo[3,4-b]pyridin-4-yl)-3-methyl-4,5,6,7-tetrahydro-1H-pyrazolo[4,3-c]pyridin-1-yl)methyl)bicyclo[2.2.2]octan-1-amine]",1730 nM
7,"Cc1cc(N2CCc3c(c(C)nn3CC34CCC(N5CCCC5)(CC3)CC4)C2)c2cnn(C)c2n1 [Compound No. 58, 5-(1,6-dimethyl-1H-pyrazolo[3,4-b]pyridin-4-yl)-3-methyl-1-((4-(pyrrolidin-1-yl)bicyclo[2.2.2]octan-1-yl)methyl)-4,5,6,7-tetrahydro-1H-pyrazolo[4,3-c]pyridine]",639 nM
8,"Cc1cc(N2CCc3c(c(C)nn3CC34CCC(N5CCOCC5)(CC3)CC4)C2)c2cnn(C)c2n1 [Compound No. 59, 4-(4-((5-(1,6-dimethyl-1H-pyrazolo[3,4-b]pyridin-4-yl)-3-methyl-4,5,6,7-tetrahydro-1H-pyrazolo[4,3-c]pyridin-1-yl)methyl)bicyclo[2.2.2]octan-1-yl)morpholine]",2170 nM
9,"COCCNC12CCC(Cn3nc(C)c4c3CCN(c3cc(C)nc5c3cnn5C)C4)(CC1)CC2 [Compound No. 69, 4-((5-(1,6-dimethyl-1H-pyrazolo[3,4-b]pyridin-4-yl)-3-methyl-4,5,6,7-tetrahydro-1H-pyrazolo[4,3-c]pyridin-1-yl)methyl)-N-(2-methoxyethyl)bicyclo[2.2.2]octan-1-amine]",442 nM
10,"Cc1cc(N2CCc3c(c(C)nn3CC34CCC(N(C)C5COC5)(CC3)CC4)C2)c2cnn(C)c2n1 [Compound No. 77, N-(4-((5-(1,6-dimethyl-1H-pyrazolo[3,4-b]pyridin-4-yl)-3-methyl-4,5,6,7-tetrahydro-1H-pyrazolo[4,3-c]pyridin-1-yl)methyl)bicyclo[2.2.2]octan-1-yl)-N-methyloxetan-3-amine]",179 nM
11,"Cc1nn(CC23CCC(N)(CC2)CC3)c2c1CN(c1ccnc(-c3ccc(C#N)cc3)c1)CC2 [Compound No. 84, 4-(4-(1-((4-aminobicyclo[2.2.2]octan-1-yl)methyl)-3-methyl-6,7-dihydro-1H-pyrazolo[4,3-c]pyridin-5(4H)-yl)pyridin-2-yl)benzonitrile]",1840 nM
12,"Cc1cc(N2CCc3c(c(C)nn3CC34CCC(O)(CC3)CC4)C2)c2cnn(C)c2n1 [compound 46, 4-((5-(1,6-dimethyl-1H-pyrazolo[3,4-b]pyridin-4-yl)-3-methyl-4,5,6,7-tetrahydro-1H-pyrazolo[4,3-c]pyridin-1-yl)methyl)bicyclo[2.2.2]octan-1-ol]",> 10000 nM
13,"Cc1cc(N2CCc3nn(CC45CC(N)(C4)C5)c(C)c3C2)c2cnn(C)c2n1 [compound 52, 3-((5-(1,6-dimethyl-1H-pyrazolo[3,4-b]pyridin-4-yl)-3-methyl-4,5,6,7-tetrahydro-2H-pyrazolo[4,3-c]pyridin-2-yl)methyl)bicyclo[1.1.1]pentan-1-amine]",4860 nM
14,"Cc1cc(N2CCc3c(c(C)nn3CC34CCC(NC5CCC5)(CC3)CC4)C2)c2cnn(C)c2n1 [compound 54, N-cyclobutyl-4-((5-(1,6-dimethyl-1H-pyrazolo[3,4-b]pyridin-4-yl)-3-methyl-4,5,6,7-tetrahydro-1H-pyrazolo[4,3-c]pyridin-1-yl)methyl)bicyclo[2.2.2]octan-1-amine]",489 nM
15,"Cc1cc(N2CCc3c(c(C)nn3CC34CCC(NC(C)C)(CC3)CC4)C2)c2cnn(C)c2n1 [compound 55, 4-((5-(1,6-dimethyl-1H-pyrazolo[3,4-b]pyridin-4-yl)-3-methyl-4,5,6,7-tetrahydro-1H-pyrazolo[4,3-c]pyridin-1-yl)methyl)-N-isopropylbicyclo[2.2.]octan-1-amine]",1050 nM
16,"Cc1cc(N2CCc3c(c(C)nn3CC34CCC(NC(C)CO)(CC3)CC4)C2)c2cnn(C)c2n1 (stereo not drawn) [compound 56, 2-((4-((5-(1,6-dimethyl-1H-pyrazolo[3,4-b]pyridin-4-yl)-3-methyl-4,5,6,7-tetrahydro-1H-pyrazolo[4,3-c]pyridin-1-yl)methyl)bicyclo[2.2.2]octan-1-yl)amino)propan-1-ol]",680 nM
17,"CCNC12CCC(Cn3nc(C)c4c3CCN(c3cc(C)nc5c3cnn5C)C4)(CC1)CC2 [compound 57, 4-((5-(1,6-dimethyl-1H-pyrazolo[3,4-b]pyridin-4-yl)-3-methyl-4,5,6,7-tetrahydro-1H-pyrazolo[4,3-c]pyridin-1-yl)methyl)-N-ethylbicyclo[2.2.]octan-1-amine]",497 nM
18,"Cc1cc(N2CCc3c(c(C)nn3CC34CCC(N5CCC5)(CC3)CC4)C2)c2cnn(C)c2n1 [compound 64, 1-((4-(azetidin-1-yl)bicyclo[2.2.2]octan-1-yl)methyl)-5-(1,6-dimethyl-1H-pyrazolo[3,4-b]pyridin-4-yl)-3-methyl-4,5,6,7-tetrahydro-1H-pyrazolo[4,3-c]pyridine]",443 nM
19,"CCOCCNC12CCC(Cn3nc(C)c4c3CCN(c3cc(C)nc5c3cnn5C)C4)(CC1)CC2 [compound 71, 4-((5-(1,6-dimethyl-1H-pyrazolo[3,4-b]pyridin-4-yl)-3-methyl-4,5,6,7-tetrahydro-1H-pyrazolo[4,3-c]pyridin-1-yl)methyl)-N-(2-ethoxyethyl)bicyclo[2.2.2]octan-1-amine]",488 nM
20,"CCOCCN(CCOCC)C12CCC(Cn3nc(C)c4c3CCN(c3cc(C)nc5c3cnn5C)C4)(CC1)CC2 [compound 72, 4-((5-(1,6-dimethyl-1H-pyrazolo[3,4-b]pyridin-4-yl)-3-methyl-4,5,6,7-tetrahydro-1H-pyrazolo[4,3-c]pyridin-1-yl)methyl)-N,N-bis(2-ethoxyethyl)bicyclo[2.2.2]octan-1-amine]",815 nM
21,"Cc1cc(N2CCc3c(c(C)nn3CC34CCC(N5C[C@@H](O)[C@@H](O)C5)(CC3)CC4)C2)c2cnn(C)c2n1 [compound 74, (3S,4R)-1-(4-((5-(1,6-dimethyl-1H-pyrazolo[3,4-b]pyridin-4-yl)-3-methyl-4,5,6,7-tetrahydro-1H-pyrazolo[4,3-c]pyridin-1-yl)methyl)bicyclo[2.2.2]octan-1-yl)pyrrolidine-3,4-diol]",1540 nM
